Assay results reported in patent US20130158090A1, “METRONIDAZOLE ESTERS FOR TREATING ROSACEA” (GALDERMA RESEARCH & DEVELOPMENT, priority 2010, published 2013).

Key:
[1] = system: oedema induced by arachidonic acid (AA) on mouse ear; assay: Acute inflammation on mouse ear: arachidonic acid-induced oedema; assay type: in vivo; conditions: 1 hour after application
Procedure: The anti-inflammatory activities of the compound of formula (I) in racemic form, of the S enantiomer of the compound of formula (I), of metronidazole and of ibuprofen were measured in an in vivo test performed on a mouse model. This model consists in inducing inflammation of the mouse ear with a single application of arachidonic acid (AA). Female Balb/c ByJlco mice are used. The oedema is induced by applying to the mouse's ear 20 μL of AA dissolved to 4% in a 1/1 THF/methanol mixture. The anti-inflammatory activities of the S enantiomer of the compound of formula (I), of the compound of formula (I) in racemic form, of metronidazole and of ibuprofen were evaluated after topical application onto the inner face of the mouse's ear of 20 μL of a solution of the compound in a 1/1 THF/methanol mixture containing 4% AA.
Solutions containing 0.01%; 0.03%; 0.1%; 0.3%; 1% and 2% of the test compound are thus prepared. The percentages correspond to the weight of the test compound per volume of solution. The oedema is evaluated, 1 hour after application, by measuring the thickness of the ear using an Oditest® micrometer. The oedema induced by AA alone is evaluated, 1 hour after application, by measuring the thickness of the ear using an Oditest® micrometer. It is evaluated relative to a group comprising only the vehicle (1/1 THF/methanol). […]

[2] = system: oedema induced by TPA (phorbol 12-myristate-13-acetate) on mouse ear; assay: Acute inflammation on mouse ear: oedema induced by TPA; assay type: in vivo; conditions: 6 hours after application
Procedure: The anti-inflammatory activities of the compound of formula (I) in racemic form, of the S enantiomer of the compound of formula (I), of metronidazole and of ibuprofen were measured in an in vivo test performed on a mouse model.
The model used is the model of mouse ear inflammation induced by a single application of TPA (phorbol 12-myristate-13-acetate). Female Balb/c ByJlco mice are used.
The oedema is induced by applying to the ear 20 μl of 0.01% TPA dissolved in ethanol.
The racemic compound of formula (I) is dissolved, at the desired concentration, in the 0.01% TPA solution and thus applied to a group of mice at the same time as the TPA.
The S enantiomer of the compound of formula (I) is dissolved, at the desired concentration, in the 0.01% TPA solution and thus applied to another group of mice at the same time as the TPA.
Similarly, ibuprofen (racemic) is dissolved, at the desired concentration, in the 0.01% TPA solution and is applied to another group of mice at the same time as the TPA. Finally, metronidazole is dissolved, at the desired concentration, in the 0.01% TPA solution and is applied to another group of mice at the same time as the TPA.
The oedema is evaluated, 6 hours after application of the test product, by measuring the thickness of the ear using an Oditest® micrometer.
The TPA-induced oedema is evaluated relative to the ethanol vehicle group. […]

[3] = system: human neonatal keratinocytes; assay: Stability on keratinocyte cultures; assay type: in vitro ADME; conditions: human neonatal keratinocyte cultures, comparative esters
Procedure: (§1) The stability on keratinocyte cultures is evaluated using human neonatal keratinocytes (Cell'N Tech) cultured in a 75 cm^2 flask and detached at 90-100% of confluence with vegetable trypsin (trypLE GIBCO). The compound of formula (I) was tested at 2 μM in the medium CNT-057 (Cell'N Tech) supplemented with 0.1% pluronic acid in 24-well plates. The final DMSO concentration is 0.1%. Degradation kinetics are performed with a Tecan EVO robot over 24 hours. The samples taken are then assayed by LC/MS/MS (Micromass) in comparison with a calibration range of the test product, prepared under the same conditions as the samples (⅓ culture medium and ⅔ methanol). The chromatographic conditions are optimized for each product. An assay of the appearance of metronidazole is also performed using these same samples.

[4] = Stability on keratinocyte cultures; assay type: in vitro ADME, human; conditions: human neonatal keratinocyte culture, 2 μM, degradation kinetics over 24 hours, LC/MS/MS; read-out: half-life time (t1/2) (converted)
Procedure: as §1

Compound: Cc1ncc([N+](=O)[O-])n1CCO [metronidazole]
- anti-inflammatory activity ([1]; AA-induced mouse ear oedema, topical): no anti-inflammatory activity
- anti-inflammatory activity ([2]; topical): no anti-inflammatory activity

Compound: COc1ccc2c(c1)c(CC(=O)OCCn1c([N+](=O)[O-])cnc1C)c(C)n2C(=O)c1ccc(Cl)cc1 [metronidazole ester with indomethacin]
- hydrolysis / stability on keratinocyte cultures [3]: do not become hydrolysed

Compound: Cc1ncc([N+](=O)[O-])n1CCOC(=O)c1cccnc1Nc1cccc(C(F)(F)F)c1 [metronidazole ester with niflumic acid]
- hydrolysis / stability on keratinocyte cultures [3]: do not become hydrolysed

Compound: Cc1ncc([N+](=O)[O-])n1CCOC(=O)[C@@H](C)c1ccc(CC(C)C)cc1 [S enantiomer of the compound of formula (I), 2-(2-methyl-5-nitroimidazol-1-yl)ethyl (S)-2-(4-isobutylphenyl)propionate]
- half-life at 2 μM [4]: 20 h
- inhibition of the oedema induced by AA alone ([1]; dose of 1% (w/v) topical on mouse ear): 49%

Compound: Cc1ncc([N+](=O)[O-])n1CCOC(=O)c1cc(-c2ccc(F)cc2F)ccc1O [metronidazole ester with diflunisal]
- hydrolysis / stability on keratinocyte cultures [3]: do not become hydrolysed

Compound: Cc1ncc([N+](=O)[O-])n1CCOC(=O)C(C)c1ccc(CC(C)C)cc1 (racemic) [racemic compound of formula (I), 2-(2-methyl-5-nitroimidazol-1-yl)ethyl 2-(4-isobutylphenyl)propionate]
- half-life at 2 μM [4]: 3 h
- IC50 (concentration at which 50% inhibition of the oedema induced by TPA alone is observed) ([2]; topical with 0.01% TPA): 0.28%

Compound: Cc1ncc([N+](=O)[O-])n1CCOC(=O)C1CCn2c(C(=O)c3ccccc3)ccc21 (stereo not shown) [metronidazole ester with ketorolac]
- hydrolysis / stability on keratinocyte cultures [3]: do not become hydrolysed
